Measured values: patent EP0164700B1, “Bis(beta-hydroxy phenethyl)amines” (BEECHAM GROUP PLC, priority 1984, dated 1985)
Structures can show the parent of a compound that is named as a salt. Where two headings read alike, the source gives them in different places.

Experiments:
Type in all cases: in vivo
Male Sprague-Dawley rats = experiment: Effect on energy expenditure of rats; details: Rattus norvegicus, po; for response vs control in vivo at 9.4 mg/kg: dose 9.4 mg/kg p.o.; for response vs control in vivo at 9.4 mg/kg / response vs control in vivo at 26.4 mg/kg / response vs control in vivo at 5.8 mg/kg / response vs control in vivo at 0.57 mg/kg / response vs control in vivo at 10.4 mg/kg / response vs control in vivo at 4.73 mg/kg / response vs control in vivo at 10.3 mg/kg: percentage of the rate of energy expenditure of the rats dosed with water, fasted rats; for response vs control in vivo at 26.4 mg/kg: dose 26.4 mg/kg p.o.; for response vs control in vivo at 5.8 mg/kg: dose 5.8 mg/kg p.o.; for response vs control in vivo at 0.57 mg/kg: dose 0.57 mg/kg p.o.; for response vs control in vivo at 10.4 mg/kg: dose 10.4 mg/kg p.o.; for response vs control in vivo at 4.73 mg/kg: dose 4.73 mg/kg p.o.; for response vs control in vivo at 10.3 mg/kg: dose 10.3 mg/kg p.o.
Description: Male Sprague-Dawley rats each weighing between 170-200 g were deprived of food for 16 hours before, and during the experiment. Water was provided ab lib at all times. The compounds were administered orally in water to 3 or 4 rats. A further 4 rats were dosed orally with water. The rats were placed in boxes through which air was drawn and the oxygen content of the air leaving the boxes was measured. The energy expenditure of the rats was calculated for 3 hours and for 21 hours after dosing from the volume of air leaving the boxes and its oxygen content, following the pinciples described by J. B. de V. Weir, J. Physiol. (London) 109, 1-9 (1949). The results are expressed as a percentage of the rate of energy expenditure of the rats dosed with water.

Female CFLP mice = experiment: Anti-hyperglycaemic activity (glucose tolerance after subcutaneous glucose load); details: 24 h fasted mice, glucose 1 g/kg s.c. 30 min after dosing, 2 hour period, compared with water controls
Description: Female CFLP mice, weighing approximately 25 g, were fasted for 24 hours prior to the study. The compound under study was administered orally as an aqueous solution to each of 6 mice. 30 minutes later a blood sample (10 µl) was obtained from the tail for the analysis of blood glucose. Immediately after taking this blood sample, glucose (1 g/kg body weight) was administered subcutaneously to each mouse. 6 mice were given water as a control. Blood samples were then obtained from each mouse at 30 minute intervals for 120 minutes.
Compounds that produce a significant (P<0.05) reduction of blood glucose, compared with control mice given water, at any time interval, are considered active. The area under the blood glucose curve over the 2 hour period after the administration of the glucose was calculated for the compounds and compared with the value for control animals.

Female BALB/c mice = experiment: Anti-obesity activity (weight of parametrial fat pads); details: 5.8 mg/kg of diet, added to the diet for 3 days, treated animals compared with controls, mean of 9 values
Description: Female BALB/c mice were trained to feed on powdered oxoid for 1 week. They were then housed in threes and the compound under study was added to the diet for 3 days. Food was removed at 09.00h and the mice were killed at 11.00h. The parmetrial fat pads were weighed as pairs. The result is a mean of 9 values.
The compound of Example Number 3 gave a 38% reduction in weight of perigenital adipose tissue in. treated animals compared with controls when given at a dose of 5.8 mg/kg of diet.

[1] = 3 h, read-out: Mean Energy Expenditure (0—3h)
[2] = 21 h, read-out: Mean Energy Expenditure (9—21h)

SMILES: C[C@H](Cc1ccc(OCCO)cc1)N(C[C@H](O)c1ccccc1)C[C@H](O)c1ccccc1 [Example 5, 4-[(R)-2-[bis-[(R)-β-hydroxyphenethyl]amino]propyl]phenoxyethanol hydrochloride]
- response vs control in vivo at 9.4 mg/kg (Male Sprague-Dawley rats; [1]): 159%
- response vs control in vivo at 9.4 mg/kg (Male Sprague-Dawley rats; [2]): 152%
- % Reduction in area under Blood Glucose Curve (Female CFLP mice; dose 2.5 µmol/kg orally): 54%

SMILES: CCOC(=O)COc1ccc(CC[C@@H](C)N(C[C@H](O)c2ccccc2)C[C@H](O)c2ccccc2)cc1.Cl [Example 4, Ethyl 4-[(R)-3-[bis-[(R)-β-hydroxyphenethyl]amino]butyl]phenoxyacetate hydrochloride]
- response vs control in vivo at 26.4 mg/kg (Male Sprague-Dawley rats; [1]): 111%
- response vs control in vivo at 26.4 mg/kg (Male Sprague-Dawley rats; [2]): 99%
- % Reduction in area under Blood Glucose Curve (Female CFLP mice; dose 12.5 µmol/kg orally): 42%

SMILES: CNC(=O)COc1ccc(C[C@@H](C)N(C[C@H](O)c2ccccc2)C[C@H](O)c2ccccc2)cc1.Cl [Example 6, N-Methyl 4-[(R)-2-[bis-[(R)-β-hydroxyphenethyl]amino]propyl]phenoxyacetamide hydrochloride]
- response vs control in vivo at 10 mg/kg (Male Sprague-Dawley rats; [1]): 154%
- response vs control in vivo at 10 mg/kg (Male Sprague-Dawley rats; [2]): 147%
- % Reduction in area under Blood Glucose Curve (Female CFLP mice; dose 2.5 µmol/kg orally): 52%

SMILES: CCOC(=O)COc1ccc(C[C@@H](C)N(C[C@H](O)c2cccc(Cl)c2)C[C@H](O)c2cccc(Cl)c2)cc1.Cl [Example 3, Ethyl 4-[(R)-2-[bis-[(R)-β-hydroxy-3-chlorophenethyl]amino]propyl]phenoxyacetate hydrochloride]
- response vs control in vivo at 5.8 mg/kg (Male Sprague-Dawley rats; [1]): 144%
- response vs control in vivo at 5.8 mg/kg (Male Sprague-Dawley rats; [2]): 132%
- reduction in weight of perigenital adipose tissue (Female BALB/c mice): 38%

SMILES: COC(=O)COc1ccc(CC(C)N(CC(O)c2cccc(Cl)c2)CC(O)c2cccc(Cl)c2)cc1.Cl.O (stereo not drawn) [Example 1, Methyl 4-[2-[bis-[β-hydroxy-3-chlorophenethyl]amino]propyl]phenoxyacetate hydrochloride monohydrate]
- response vs control in vivo at 0.57 mg/kg (Male Sprague-Dawley rats; [1]): 132%
- response vs control in vivo at 0.57 mg/kg (Male Sprague-Dawley rats; [2]): 110%
- % Reduction in area under Blood Glucose Curve (Female CFLP mice; dose 5 µmol/kg orally): 55%

SMILES: CNCCOc1ccc(C[C@@H](C)N(C[C@H](O)c2ccccc2)C[C@H](O)c2ccccc2)cc1 [Example 7, N-Methyl 4-[(R)-2-[bis-[(R)-β-hydroxyphenethyl]amino]propyl]phenoxy ethylamine dihydrochloride]
- response vs control in vivo at 10.4 mg/kg (Male Sprague-Dawley rats; [1]): 145%
- response vs control in vivo at 10.4 mg/kg (Male Sprague-Dawley rats; [2]): 146%
- % Reduction in area under Blood Glucose Curve (Female CFLP mice; dose 2.5 µmol/kg orally): 50%

SMILES: C[C@H](COc1ccc(OCC(N)=O)cc1)N(C[C@H](O)c1ccccc1)C[C@H](O)c1ccccc1 [Example 8, 4-[(R)-2-[bis-[(R)-β-hydroxyphenethyl]amino]propoxy]phenoxyacetamide hydrochloride]
- response vs control in vivo at 4.73 mg/kg (Male Sprague-Dawley rats; [1]): 113%
- response vs control in vivo at 4.73 mg/kg (Male Sprague-Dawley rats; [2]): 103%

SMILES: CCOC(=O)COc1ccc(C[C@@H](C)N(C[C@H](O)c2ccccc2)C[C@H](O)c2ccccc2)cc1.Cl [Example 2, Ethyl 4-[(R)-2-[bis-[(R)-β-hydroxyphenethyl]amino]propyl]phenoxyacetate hydrochloride]
- response vs control in vivo at 10.3 mg/kg (Male Sprague-Dawley rats; [1]): 146%
- response vs control in vivo at 10.3 mg/kg (Male Sprague-Dawley rats; [2]): 143%
- % Reduction in area under Blood Glucose Curve (Female CFLP mice; dose 2.5 µmol/kg orally): 52%
